Measurements published in the NIST ThermoML archive (doi:10.1016/j.jct.2017.02.024).

Assay: mn = molality of the nth substance listed, in mol/kg
Details: 100 kPa, Liquid; for viscosity: Capillary tube (Ostwald / Ubbelohde) method; for mass density: Vibrating tube method

CC(C)[C@H](N)C(=O)O [L-valine] + O
Details	mass density, 293.15 K [kg/m3]	mass density, 303.15 K [kg/m3]	mass density, 313.15 K [kg/m3]	mass density, 323.15 K [kg/m3]	viscosity, 293.15 K [mPa·s]	viscosity, 303.15 K [mPa·s]	viscosity, 313.15 K [mPa·s]	viscosity, 323.15 K [mPa·s]
m1 = 0.1	1000.87	998.32	994.85	990.59	1.044	0.83	0.678	0.567
m1 = 0.2	1003.5	1000.9	997.4	993.09	1.088	0.864	0.704	0.587
m1 = 0.3	1006.05	1003.43	999.89	995.54	1.134	0.899	0.731	0.608
m1 = 0.4	1008.55	1005.9	1002.34	997.95	1.183	0.936	0.76	0.63

O [water] + C[C@@H](O)[C@H](N)C(=O)O
m2 = 0
Details	mass density [kg/m3]	viscosity [mPa·s]
293.15 K	–	1.002
303.15 K	–	0.798
313.15 K	–	0.654
323.15 K	988.02	0.547

O [water] + OC[C@@H](O)[C@@H](O[C@H]1O[C@H](CO)[C@@H](O)[C@H](O)[C@H]1O)[C@H](O)[C@@H](O)CO
m2 = 0
Details	mass density [kg/m3]	viscosity [mPa·s]
293.15 K	–	1.002
303.15 K	–	0.798
313.15 K	–	0.654
323.15 K	988.02	0.547

O [water] + N=C(N)NCCC[C@H](N)C(=O)O
m2 = 0
Details	mass density [kg/m3]	viscosity [mPa·s]
293.15 K	–	1.002
303.15 K	–	0.798
313.15 K	–	0.654
323.15 K	988.02	0.547

C[C@@H](O)[C@H](N)C(=O)O [L-threonine] + O
Details	mass density, 293.15 K [kg/m3]	mass density, 303.15 K [kg/m3]	mass density, 313.15 K [kg/m3]	mass density, 323.15 K [kg/m3]	viscosity, 293.15 K [mPa·s]	viscosity, 303.15 K [mPa·s]	viscosity, 313.15 K [mPa·s]	viscosity, 323.15 K [mPa·s]
m1 = 0.1	1002.4	999.82	996.36	992.09	1.035	0.823	0.673	0.563
m1 = 0.2	1006.54	1003.91	1000.4	996.09	1.07	0.85	0.694	0.579
m1 = 0.3	1010.59	1007.91	1004.35	1000.01	1.105	0.878	0.717	0.596
m1 = 0.4	1014.57	1011.83	1008.22	1003.85	1.143	0.907	0.739	0.615
m1 = 0.5	1018.46	1015.67	1012.03	1007.62	1.182	0.936	0.763	0.632
m1 = 0.6	1022.28	1019.43	1015.75	1011.32	1.221	0.967	0.787	0.651
m1 = 0.7	1026.03	1023.14	1019.41	1014.96	1.263	0.999	0.811	0.67

O [water] + C[C@H](N)C(=O)O
m2 = 0
Details	mass density [kg/m3]	viscosity [mPa·s]
293.15 K	–	1.002
303.15 K	–	0.798
313.15 K	–	0.654
323.15 K	988.02	0.547

C[C@H](N)C(=O)O [(S)-2-aminopropanoic acid] + O
Details	mass density, 293.15 K [kg/m3]	mass density, 303.15 K [kg/m3]	mass density, 313.15 K [kg/m3]	mass density, 323.15 K [kg/m3]	viscosity, 293.15 K [mPa·s]	viscosity, 303.15 K [mPa·s]	viscosity, 313.15 K [mPa·s]	viscosity, 323.15 K [mPa·s]
m1 = 0.1	1001.06	998.5	995.04	990.8	1.027	0.817	0.669	0.559
m1 = 0.2	1003.89	1001.29	997.81	993.55	1.053	0.837	0.684	0.571
m1 = 0.3	1006.66	1004.03	1000.5	996.24	1.079	0.857	0.7	0.584
m1 = 0.4	–	–	–	–	1.106	0.878	0.716	0.597
m1 = 0.401	1009.41	1006.73	1003.18	998.9	–	–	–	–
m1 = 0.5	1012.07	1009.37	1005.79	1001.49	1.134	0.898	0.733	0.611
m1 = 0.6	1014.71	1011.97	1008.36	1004.08	1.163	0.921	0.751	0.624
m1 = 0.7	1017.29	1014.52	1010.9	1006.6	1.193	0.943	0.768	0.638
